{"source": "patent US6815425B1", "about": "(The United States of America as represented by the …, priority 1999, dated 2004)", "key": {"[1]": {"details": "animal studies / rodents; cited from earlier work"}, "[2]": {"details": "cited from earlier work; for plasma levels of thyroid hormone: in vivo"}, "forebrain neurons": {"system": "forebrain neurons", "assay": "Glutamate-induced neurotoxicity, colorimetric MTT assay, cultured forebrain neurons", "assay_type": "cell-based, rat", "experimental": "(§1) Primary cultures of neurons derived from the forebrains and spinal cords of E15 fetuses were prepared and maintained in culture for eight days. […] Extending these observations, we compared the neuroprotective efficacy of EEP and TRH."}, "[3]": {"system": "serum enzyme thyroliberinase", "details": "cited from earlier work"}, "[4]": {"system": "glutamate-stimulated Ca2+ dynamics", "assay": "Glutamate-stimulated Ca2+ dynamics after pre-incubation", "assay_type": "cell-based"}, "[5]": {"details": "cited from earlier work"}, "focal ischemia": {"system": "focal ischemia", "details": "rat; also when given 3 hours or 5 hours after start of recirculation (temporary model); cited from earlier work"}, "volume of necrosis": {"system": "volume of necrosis", "details": "administered 15 min prior or 30 min post TBI; preliminary studies; cited from earlier work"}, "striatal lesions": {"system": "striatal lesions", "details": "striatal injections; cited from earlier work"}, "[6]": {"details": "cited from earlier work", "remark": "listed apart in the source"}, "[7]": {"details": "rats, intraperitoneal 1.0 mg/kg; cited from earlier work"}, "[8]": {"system": "immobility in the Porsolt swim test", "details": "administered to rats; cited from earlier work"}, "[9]": {"details": "compared with TRH; cited from earlier work"}, "TRH receptor": {"target": "T1, TRH receptor (Homo sapiens, UniProt P34981)", "T1 sequence (P34981 1-398)": "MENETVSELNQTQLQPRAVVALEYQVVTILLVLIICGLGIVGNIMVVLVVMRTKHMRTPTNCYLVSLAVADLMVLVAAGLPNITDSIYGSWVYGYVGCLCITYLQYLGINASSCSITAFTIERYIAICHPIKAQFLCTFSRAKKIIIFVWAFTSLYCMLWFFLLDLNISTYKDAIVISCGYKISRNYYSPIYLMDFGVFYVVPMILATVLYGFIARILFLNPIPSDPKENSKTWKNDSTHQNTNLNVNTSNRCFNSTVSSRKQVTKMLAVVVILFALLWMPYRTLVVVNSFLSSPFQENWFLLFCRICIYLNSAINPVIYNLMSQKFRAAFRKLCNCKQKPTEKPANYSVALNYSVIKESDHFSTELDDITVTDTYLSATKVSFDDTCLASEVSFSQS", "details": "reported; cited from earlier work"}, "[10]": {"system": "cultured forebrain neurons", "assay": "Neuroprotection by EEP with or without SPBN in cultured forebrain neurons exposed to Glu, MTT assay", "assay_type": "cell-based, rat", "details": "SPBN 10 mM where present, Glu 100 μM, 1 h", "experimental": "Neuroprotection evident at higher concentrations of the tripeptide is further enhanced by the addition of the nitrone. Percent neuroprotection=100×((viabilitytest−vibilitymean Glu))/(viabilitymean control−viabilitymean Glu)). Neuroprotection was then assessed by conducting the colorimetric MTT assay."}, "spinal cord neurons": {"system": "spinal cord neurons", "assay": "Glutamate-induced neurotoxicity, colorimetric MTT assay, cultured spinal cord neurons", "assay_type": "cell-based, rat", "details": "100 μM glutamate 30 min", "experimental": "as §1"}, "locomotor activity": {"system": "locomotor activity", "details": "administered to rats; cited from earlier work"}}, "note": "Entries after “also recorded” stand apart in the source; their conditions may differ.", "data": [{"compound": "CC(C)(C)[N+]([O-])=Cc1ccccc1", "note": "[PBN, α-Phenyl-N-tert-butylnitrone]", "values": [{"measurement": "toxicity", "setting": "[1]", "result": "significant toxicity at high doses; also recorded: toxic in rodents at high doses"}]}, {"compound": "NC(=O)[C@@H]1CCCN1C(=O)[C@H](Cc1cnc[nH]1)NC(=O)[C@@H]1CCC(=O)N1", "note": "[TRH, pyroglutamate-histidine-proline-amide, reference compound]", "values": [{"measurement": "plasma levels of thyroid hormone", "setting": "[2]", "result": "elevates"}, {"measurement": "effect on glutamate-mediated neurotoxicity", "setting": "forebrain neurons", "result": "relatively little effect"}, {"measurement": "hydrolysis by serum enzyme thyroliberinase", "setting": "[3]", "result": "hydrolyzed"}, {"measurement": "effect on glutamate-stimulated Ca2+ dynamics", "setting": "[4]", "result": "clearly does"}, {"measurement": "hydrolysis by pyroglutamylpeptidase II found in blood", "setting": "[5]; injected, blood", "result": "rapidly hydrolyzed"}]}, {"compound": "CC(C)(C)[N+]([O-])=Cc1ccc(S(=O)(=O)[O-])cc1S(=O)(=O)[O-].[Na+].[Na+]", "note": "[NXY-059]", "values": [{"measurement": "efficacy in temporary and permanent focal ischemia", "setting": "focal ischemia", "result": "effective"}, {"measurement": "volume of necrosis", "setting": "volume of necrosis", "result": "effective in decreasing volume of necrosis"}]}, {"compound": "CC(C)(C)[N+]([O-])=Cc1ccccc1S(=O)(=O)O", "note": "[SPBN, N-tert-Butyl-α-(2-sulfophenyl)nitrone]", "values": [{"measurement": "toxicity", "setting": "[1]", "result": "without significant toxicity; also recorded: Toxicity has not been a problem"}, {"measurement": "volume of lesions induced by NMDA, kainic acid, AMPA, MPP+, 3-acetyl pyridine and malonate", "setting": "striatal lesions", "result": "decreasing the volume of the lesions"}, {"measurement": "solubility in aqueous solutions", "setting": "[6]", "result": "soluble"}]}, {"compound": "pGLU-GLU-PRO-NH2 [EEP]", "values": [{"measurement": "increase of EEP level in amygdala", "setting": "[7]", "result": 7, "unit": "fold"}, {"measurement": "increase of EEP level in cortex", "setting": "[7]", "result": 14, "unit": "fold"}, {"measurement": "increase of EEP level in the eye", "setting": "[7]", "result": "Over one hundred"}, {"measurement": "increase of EEP level in the hypothalamus", "setting": "[7]", "result": 2, "unit": "fold"}, {"measurement": "increase of EEP level in the medulla", "setting": "[7]", "result": 4, "unit": "fold"}, {"measurement": "increase of EEP level in the pituitary", "setting": "[7]", "result": 11, "unit": "fold"}, {"measurement": "immobility in the Porsolt swim test", "setting": "[8]", "result": "decreases"}, {"measurement": "stability in follicular fluid", "setting": "[9]", "result": "more stable than TRH"}, {"measurement": "affinity for the TRH receptor", "setting": "TRH receptor", "result": "low affinity"}, {"measurement": "Percent Neuroprotection", "setting": "[10]; EEP 300 μM", "result": "13.321 ± 7.319", "unit": "%"}, {"measurement": "Percent Neuroprotection", "setting": "[10]; EEP 1000 μM", "result": "35.784 ± 15.431", "unit": "%"}, {"measurement": "efficacy as a releaser of thyroid stimulating hormone or triiodothyronine", "setting": "[2]; compared to thyrotropin releasing hormone", "result": "minimal efficacy"}, {"measurement": "plasma levels of thyroid hormone", "setting": "[2]", "result": "does not elivate"}, {"measurement": "reduction of Glu-induced toxicity", "setting": "forebrain neurons; 500 μM EEP, 100 μM glutamate 30 min, n=7", "result": "29.8±5.6", "unit": "%"}, {"measurement": "neuroprotection (reduction of Glu-induced toxicity)", "setting": "forebrain neurons; 1 mM EEP, 100 μM glutamate 30 min, n=7", "result": "54.1±5.3", "unit": "%"}, {"measurement": "neuroprotective efficacy / potency relative to TRH", "setting": "forebrain neurons; EEP compared with TRH, neuron type not stated", "result": "over three times as effective as TRH; also recorded: three times the neuroprotective potency of TRH"}, {"measurement": "hydrolysis by serum enzyme thyroliberinase", "setting": "[3]", "result": "not hydrolyzed"}, {"measurement": "effect on glutamate-stimulated Ca2+ dynamics", "setting": "[4]", "result": "does not affect"}, {"measurement": "reduction of Glu-induced toxicity", "setting": "spinal cord neurons; 500 μM EEP, n=7", "result": "20±2.0", "unit": "%"}, {"measurement": "neuroprotection (reduction of Glu-induced toxicity)", "setting": "spinal cord neurons; 1 mM EEP, n=8", "result": "38.9±4.9", "unit": "%"}, {"measurement": "degradation in human serum", "setting": "[5]; human serum", "result": "not degraded at all"}, {"measurement": "locomotor activity", "setting": "locomotor activity", "result": "increases"}]}]}
